A melting point compilation (Tetko et al.; mined from patent text by program, amines drawn as free bases though some values may be those of a salt)

Compound | melting point [°C]
COC(CNC(=O)CCN1C(=O)NC(C)(C)C1=O)OC | 123
Oc1ccc(N2CCN(c3nncc4ccccc34)CC2)cc1 | 244 to 245
Nc1ncnc2c1c(-c1cccnc1)nn2Cc1oc2ccccc2c(=O)c1-c1ccccc1 | 253 to 255
O=c1oc2c(O)cccc2c(O)c1-c1ccccc1 | 220
CC1Cc2c(c(Cl)cc(F)c2N2C(=O)c3ccccc3C2=O)O1 (stereo unspecified) | 158 to 160
Cc1onc(O)c1-c1ccccc1[N+](=O)[O-] | 197
CNC(=O)N(O)Cc1ccc2c(c1)OCc1ccccc1C2=O | 155 to 157
O=C(C=Cc1ccccc1O)c1ccccc1 | 148 to 149
CCC(=O)NC1Cc2ccccc2C(c2ccccc2)C1 (stereo unspecified) | 144 to 146
CC(C)(S)CN1CCN(Cc2ccc(O)cc2)CC1 | 81
O=C1CCCCCCCCC=CCCCCCCCCC1O (stereo unspecified) | 66 to 67
CCCn1c(=O)[nH]c(Cl)c(-c2ccccc2)c1=O | 230 to 231
OCCCc1cccc(OCc2coc(/C=C/c3ccccc3)n2)c1 | 57 to 58
CC(C)(C)OC(=O)C(Cc1ccccc1)NC(=O)c1ccc2c(Cl)cnc(Cl)c2c1 (racemic) | 156 to 157
COC(=O)c1ccc(CNc2cc(C(=O)Nc3ccccc3)ccc2OC)cc1 | 170 to 172
Clc1ccc(C2(Cn3ccnc3)OC2c2ccc(Cl)cc2Cl)cc1 (stereo unspecified) | 102 to 103
Cc1ccc(CN2C(=O)c3cccc4cccc2c34)cc1 | 108 to 110
Cc1ccccc1NC(=O)CN1C[C@@H](C)N(S(=O)(=O)c2cccc([N+](=O)[O-])c2)[C@@H](C)C1 | 163 to 164
CCCOCc1cc2cc(-c3ccc4c(c3)C=C(C(=O)Nc3ccc(CN(C)C5CCOCC5)cc3)CCS4(=O)=O)ccc2o1 | 204 to 206
CCCCCCCCCCCCCCCCC(C(=O)NC1=NN(c2ccccc2)C(=O)C1C)S(=O)(=O)O (stereo unspecified) | 240
CCc1cnc(C2=NC(C)(C(C)C)C(=O)N2)c(C(=O)OC(C)CC)c1 (stereo unspecified) | 83 to 87
CC1(C)CC(N2C(=O)C=CC2=O)CC(C)(C)N1OC1CCCCC1 | 135 to 139
O=C(CCCCC1CCSS1)N1CCSCC1 (stereo unspecified) | 31 to 32
COc1ccccc(N(C)S(=O)(=O)c2ccc(C)cc2)c1=O | 94.5
CCOC(=O)C1(C(=O)OCC)OC(=O)c2ccccc2C1(O)c1ccc(F)cc1 (stereo unspecified) | 102 to 104
O=c1c(-c2ccccc2F)c(CNc2ncnc3[nH]cnc23)oc2ccccc12 | 143 to 147

Compound | melting point [°C]
CCC[C@@H](CC1(C(=O)Nc2nnc(CC)s2)CCCC1)C(=O)O | 130 to 136
CCCCCCCCCCCCCCOc1ccc(CC(=O)NCCc2ccccn2)cc1 | 90 to 91
O=C(Nc1ccc(N2C[C@@H]3C[C@H]2CO3)c(F)c1)OCc1ccccc1 | 120 to 121
Cc1cc(=O)c2ccc(OCCCCl)cc2o1 | 113 to 115
Cc1c(C)c2c(c(C)c1N)C(C)C(C)(N1CCN(C)CC1)O2 (stereo unspecified) | 76 to 77
CNc1ncnc2c1ncn2C1OC(CO)C(O)C1O (stereo unspecified) | 202
Cc1ccc(C)c(C(=O)C=Cc2ccccc2C(=O)Cl)c1 | 96 to 98
CC(C)(C)OC(=O)CN1C(=O)[C@@H](N)[C@H](c2ccccc2)Sc2ccccc21 (relative stereo) | 172 to 174
CCCC=Cc1c(C(C)C)nc(C(C)C)c(CO)c1-c1ccc(-c2ccccc2)cc1 | 50 to 52
COC(=O)Cc1cc(OC)ccc1O | 69 to 70
Cc1noc(NS(=O)(=O)c2ccccc2-c2ccc(-c3ncco3)cc2COc2ccc(-c3ccccc3)cc2)c1C | 95 to 105
O=C(O)c1ccc(C=CC(=O)N2CCCCC2)cc1 | 257
COc1ccc(CC2C(=O)N(Cc3ccccc3)c3ccccc3N(C(=O)CN3C(=O)c4ccccc4C3=O)C2C)cc1 (stereo unspecified) | 247 to 248
Cc1cccc(-c2n[nH]cc2-c2ccc(F)c(-c3c[nH]c(CC(C)(C)O)n3)c2)n1 | 136 to 140
COCCc1nc2c(N)nc3cc(OCc4ccccc4)ccc3c2n1CC(C)(C)O | 185 to 186
O=C(Nc1ccc(SC(F)(F)F)cc1)c1cc(S(=O)(=O)c2ccccc2)c2ccccc2c1O | 271 to 272
COC(=O)c1ccccc1C=C1C(=O)Nc2ccc(S(=O)(=O)NC(C)C)cc21 | 271 to 273
CC(=O)OCCn1ccc(=O)c(OCc2ccccc2)c1C(OC(C)=O)c1ccc(F)cc1 (stereo unspecified) | 118 to 119
CC(C)(C)c1ccc(OCC(=O)O)cc1 | 93 to 95
CC(=O)NNC1=Nc2sc(Cl)cc2C(c2ccccc2Cl)=NC1 | 211 to 213
CN(Cc1ccc(NC(=O)C2=Cc3cc(-c4ccc(N5CCCC5)cc4)ccc3OCC2)cc1)C1CCOCC1 | 210 to 211
CCOc1ccc2c(c1)C(=O)CCC2 | 34 to 36
CCOC(=O)c1nc(-c2c(Cl)cc(C(F)(F)F)cc2Cl)[nH]c1C#N | 180 to 181
O=C(Nc1ccc(-n2ccnc2)cc1)NC12CC3CC(CC(C3)C1)C2 | 272 to 276
CN(O)C(=O)c1ccc(CCCCc2ccc(C(=O)N(C)O)cc2)cc1 | 157 to 159
COc1ncnc(OC)c1N(C(=O)CCl)C(C)n1cccn1 (stereo unspecified) | 124 to 126

Compound | melting point [°C]
CCCNC(=O)C(C)c1nc(CC)no1 (stereo unspecified) | 52 to 53
CC(C)(C)C(=O)Nc1c(F)cc(F)cc1Oc1ccc(C2CC(=O)NC(=O)C2)cc1 | 172
CC(=O)C(C)=Cc1cc(O)c(O)c([N+](=O)[O-])c1 | 139 to 141
CCC1(C)CC(=O)C(C(=O)Nc2ccc(C(F)(F)F)cc2)C(=O)C1 (stereo unspecified) | 99 to 100
CCSc1nc2c(cc1F)c(=O)c(C(=O)O)cn2C(C)(C)C | 215
CCCCCCOc1ccc(C(=O)c2cccc(C(=O)O)c2)c(C)c1 | 136 to 138
S=C(NCCN(Cc1ccc(Cl)c(Cl)c1)c1ccc(Br)cn1)Nc1ccc(N2CCCCC2)cc1 | 146 to 148
CCC(CC)Oc1cc(C)nc2c1nc(N)n2-c1c(C)cc(C)cc1C | 159 to 161
CCOP(=O)(CC(N)=S)OCC | 73 to 75
Cc1ccc(-c2ccccc2-c2nn[nH]c2C#N)cc1 | 170 to 172
CC(C)(C)C12OOC1(c1cc3cc(O[Si](C)(C)C(C)(C)C)ccc3s1)OCC2(C)C (stereo unspecified) | 125 to 126
Clc1c(OCC2CO2)cccc1N1CCCCC1 (stereo unspecified) | 55 to 57
C=C(C)C[C@@H]1C(=O)N(c2ccc(C#N)c(Cl)c2)[C@@H](C)[C@H]1O | 110 to 112
CN1C(=O)C2C3CCC(CC3)C2(c2ccc(F)c(F)c2)C1=O (stereo unspecified) | 133 to 136
Cc1cc(NC(C)(C)C)nc(Cl)c1C#N | 109
Nc1cc(OCCCl)ccc1F | 42 to 43
CCOC(=O)c1cc(-n2c(=O)[nH]c3c(c2=O)CCCC3)ccc1Cl | 196 to 198
COc1ccc2cc(C(=O)[C@H](C)OS(=O)(=O)c3ccccc3)ccc2c1 | 74 to 75
O=[N+]([O-])c1c(NCC23CCCN2CCC3)cnc2ccccc12 | 95 to 99
O=C(O)Cc1ccc(OCCc2ccccc2)c(OCc2ccccc2)c1 | 116 to 119
COc1ccc(CS[C@@H]2C[C@@H](COc3ccccc3)N(S(C)(=O)=O)C2)cc1 | 92 to 94
O=C1c2c(ccc(F)c2Cl)-n2cnc(-c3cccc(Cl)c3)c2[C@@H]2CCCN12 | 238 to 239
O=C1NC(=O)C2CC(SC3=CCC4C(=O)NC(=O)C4C3)=CCC12 (stereo unspecified) | 204 to 208
CC(=O)On1c(=O)c(=O)[nH]c2cc(C(F)(F)F)c(C#N)cc21 | 230
COc1sc(-c2cc[nH]n2)c2c1C(=O)CC(C)(C)C2 | 202 to 204
CCCCCCCCCCCCCCC(=O)C(=O)N[C@@H](CCCC)C(=O)NCC(=O)OCC | 63 to 65

Compound | melting point [°C]
CCC(C)(C)Nc1c(NCc2cccc(C)c2C)c(=O)c1=O | 196 to 198
c1ccc(CN2CC3Cc4ccccc4OC3C2)cc1 (stereo unspecified) | 68 to 70
N#Cc1cnc(N)cc1N | 197 to 198
COc1ccc(O)c(C2(CCCCSC)Sc3ccccc3N(C)C2=O)c1 (stereo unspecified) | 148 to 150
OCc1ccc(-c2ccc(-c3cn([C@H]4CN5CCC4CC5)nn3)cc2)s1 | 234
Nc1c([N+](=O)[O-])cnn1-c1ncc(Cl)cc1Cl | 194
Nc1ccc(Cl)cc1C=Nc1ccccc1 | 74
COC(=O)C1=C(C)NN=C(C(=O)OC2CCCC2)C1c1ccccc1Cl (stereo unspecified) | 152
CCOc1cc(NC(=O)NS(=O)(=O)c2ccc(C)cc2)cc(OCC)n1 | > 270
COc1ccc(N2C(=O)C(O[Si](C(C)C)(C(C)C)C(C)C)C2c2ccc(F)cc2)cc1 (stereo unspecified) | 121 to 122
COc1cc(Nc2c(C#N)cnc3ccc(-c4csc(CN5CCOCC5)c4)cc23)c(Cl)cc1Cl | 145 to 147
CCCN(CCC)S(=O)(=O)c1cc(-c2csc(=Nc3ccc(C)cc3C)n2C)ccc1Cl | 139 to 141
C=CC(=O)NCCCCCCCCCCCCOc1ccccc1 | 69 to 71
CSc1ncc(CNc2ccccc2Cl)c(Nc2ccccc2)n1 | 131 to 132
CN(C)C(=O)Nc1ccc(Oc2ccc(Cl)nn2)cc1 | 173 to 174
CCCCNS(=O)(=O)CC(O)C(O)C(CC1CCCCC1)NC(=O)CC(CC)c1c[nH]cn1 (stereo unspecified) | 60 to 90
COc1cc(/C(C#N)=C\c2ccc(C)c(N)c2)cc(OC)c1OC | 161 to 162
COCOc1ccc(-c2ncc3ccc(-c4csc(CN5CCCCC5)c4)nc3n2)cc1 | > 268
COC(=O)C(C)c1ccc2cc(OC(=O)CO[N+](=O)[O-])ccc2c1 (stereo unspecified) | 72 to 74
COc1cc(Nc2c(C#N)cnc3cc(-c4cscc4CN4CCOCC4)ccc23)c(Cl)cc1Cl | 188 to 190
CCN(C(C)=O)c1cc([N+](=O)[O-])cc([N+](=O)[O-])c1 | 98 to 100
O=C(O)C1(c2ccc(CN3CCN(c4ccc(F)cc4)CC3)cc2)CC1 | 74 to 77
CN1C(C)(C)CC(Nc2c([O-])[c+](NC3CC(C)(C)N(C)C(C)(C)C3)[c+]2[O-])CC1(C)C | > 340
